Assay results taken from patent publication US20230085307A1, “PYRIDAZINONE COMPOUND AND HERBICIDE” (NISSAN CHEMICAL CORPORATION, priority 2019, published 2023).

Key:
late watergrass [1] = experiment: Test Example 2: herbicidal activity, application during weed generation under submerged conditions (Table 17, symbol A); format: in vivo, late watergrass (Echinochloa oryzicola); conditions: AAH 320 g/ha; application during weed generation, submerged conditions
How it was run: (§1)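 Steps: fill Wagner pots with alluvial soil; add water to give 4 cm depth; sow the species mixed; grow under glass at 25–30° C.; at 1–2 leaves apply water-diluted emulsion formulation to the water surface at a fixed herbicide amount; score after 3 weeks.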

Japanese bulrush [2] = experiment: Test Example 2: herbicidal activity, application during weed generation under submerged conditions (Table 17, symbol B); format: in vivo, Japanese bulrush (Schoenoplectus juncoides); conditions: AAH 320 g/ha; application during weed generation, submerged conditions
How it was run: as §1

oval-leafed pondweed [3] = experiment: Test Example 2: herbicidal activity, application during weed generation under submerged conditions (Table 17, symbol C); format: in vivo, oval-leafed pondweed (Monochoria vaginalis); conditions: AAH 320 g/ha; application during weed generation, submerged conditions
How it was run: as §1

barnyard grass [4] = experiment: Test Example 3: herbicidal effect by foliage application, Wagner pot (Table 18, symbol H); format: in vivo, barnyard grass (Echinochloa crus-galli)
How it was run: (§2)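 Plants were sown in alluvial soil held under 0.1–0.5 cm standing water and grown 14 days in a greenhouse at 25–30 °C. An emulsifiable formulation, water-diluted to the set dose, was then sprayed onto the foliage, and effects were scored three weeks later using previously defined criteria.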

Chinese sprangletop = experiment: Test Example 3: herbicidal effect by foliage application, Wagner pot (Table 18, symbol D); format: in vivo, chinese sprangletop (Leptochloa chinensis)
How it was run: as §2

rice flat sedge = experiment: Test Example 3: herbicidal effect by foliage application, Wagner pot (Table 18, symbol E); format: in vivo, rice flat sedge (Cyperus iria)
How it was run: as §2

southern crabgrass = experiment: Test Example 5: herbicidal effect by foliage application, plastic box (Table 20, symbol F); format: in vivo, southern crabgrass (Digitaria ciliaris); conditions: foliage application, 320 g/ha
How it was run: (§3)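 Post-emergence foliar test in sterilized diluvial soil. Compound applied as water-diluted emulsion at a predetermined rate to 14-day-old plants; evaluation at three weeks.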

green foxtail = experiment: Test Example 5: herbicidal effect by foliage application, plastic box (Table 20, symbol G); format: in vivo, green foxtail (Setaria viridis); conditions: foliage application, 320 g/ha
How it was run: as §3

barnyard grass [5] = experiment: Test Example 5: herbicidal effect by foliage application, plastic box (Table 20, symbol H); format: in vivo, barnyard grass (Echinochloa crus-galli); conditions: foliage application, 320 g/ha
How it was run: as §3

wild oat = experiment: Test Example 5: herbicidal effect by foliage application, plastic box (Table 20, symbol I); format: in vivo, wild oat (Avena fatua); conditions: foliage application, 320 g/ha
How it was run: as §3

blackgrass = experiment: Test Example 5: herbicidal effect by foliage application, plastic box (Table 20, symbol J); format: in vivo, blackgrass (Alopecurus myosuroides); conditions: foliage application, 320 g/ha
How it was run: as §3

Italian ryegrass = experiment: Test Example 5: herbicidal effect by foliage application, plastic box (Table 20, symbol K); format: in vivo, Italian ryegrass (Lolium multiflorum); conditions: foliage application, 320 g/ha
How it was run: as §3

windgrass = experiment: Test Example 5: herbicidal effect by foliage application, plastic box (Table 20, symbol L); format: in vivo, windgrass (Apera spica-venti); conditions: foliage application, 320 g/ha, evaluated three weeks after application
How it was run: as §3

velvetleaf = experiment: Test Example 5: herbicidal effect by foliage application, plastic box (Table 20, symbol M); format: in vivo, velvetleaf (Abutilon theophrasti); conditions: foliage application, 320 g/ha
How it was run: as §3

redroot pigweed = experiment: Test Example 5: herbicidal effect by foliage application, plastic box (Table 20, symbol N); format: in vivo, redroot pigweed (Amaranthus retroflexus); conditions: foliage application, 320 g/ha, evaluated three weeks after application
How it was run: as §3

lambsquarters = experiment: Test Example 5: herbicidal effect by foliage application, plastic box (Table 20, symbol O); format: in vivo, lambsquarters (Chenopodium album); conditions: foliage application, 320 g/ha
How it was run: as §3

chickweed = experiment: Test Example 5: herbicidal effect by foliage application, plastic box (Table 20, symbol P); format: in vivo, common chickweed (Stellaria media); conditions: foliage application, 320 g/ha
How it was run: as §3

false cleavers = experiment: Test Example 5: herbicidal effect by foliage application, plastic box (Table 20, symbol Q); format: in vivo, false cleavers (Galium spurium); conditions: foliage application, 320 g/ha
How it was run: as §3

persian speedwell = experiment: Test Example 5: herbicidal effect by foliage application, plastic box (Table 20, symbol R); format: in vivo, Persian speedwell (Veronica persica); conditions: foliage application, 320 g/ha
How it was run: as §3

late watergrass [6] = experiment: Test Example 1: herbicidal activity, application before weed generation under submerged conditions (Table 16, symbol A); format: in vivo, late watergrass (Echinochloa oryzicola); conditions: amount of applied herbicide 320 g/ha
How it was run: (§4)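 Alluvial soil was flooded to 4 cm depth, weed seeds were sown mixed and 2.5-leaf rice seedlings were transplanted. On sowing day, the compound's emulsion, diluted in water to a set dose, was applied to the water surface. Plants grew at 25–30 °C and were scored 0–5 after three weeks.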

Japanese bulrush [7] = experiment: Test Example 1: herbicidal activity, application before weed generation under submerged conditions (Table 16, symbol B); format: in vivo, Japanese bulrush (Schoenoplectus juncoides); conditions: amount of applied herbicide 320 g/ha
How it was run: as §4

oval-leafed pondweed [8] = experiment: Test Example 1: herbicidal activity, application before weed generation under submerged conditions (Table 16, symbol C); format: in vivo, oval-leafed pondweed (Monochoria vaginalis); conditions: amount of applied herbicide 320 g/ha
How it was run: as §4

[9] = amount of applied herbicide 320 g/ha
[10] = evaluated three weeks after application

Structure (SMILES): CCCC(=O)Oc1c(C)nn(C)c(=O)c1-c1c(-c2c(OC)cccc2OC)sc2ccc(Cl)cc12 [2-122]
- herbicidal effect rating, A: late watergrass (late watergrass [1]): 0 (Herbicidal rate of 5% or less (almost no effect))
- herbicidal effect rating, B: Japanese bulrush (Japanese bulrush [2]): 0 (Herbicidal rate of 5% or less (almost no effect))
- herbicidal effect rating, C: oval-leafed pondweed (oval-leafed pondweed [3]): 2 (Herbicidal rate of 20% or more and less than 40%)
- herbicidal effect on H: barnyard grass (barnyard grass [4]; [9]): 2 (Herbicidal rate of 20% or more and less than 40%)
- herbicidal effect on D: Chinese sprangletop (Chinese sprangletop; [9]): 0 (Herbicidal rate of 5% or less (almost no effect))
- herbicidal effect on E: rice flat sedge (rice flat sedge; [9]): 0 (Herbicidal rate of 5% or less (almost no effect))
- herbicidal effect on F: southern crabgrass (southern crabgrass; [10]): 0 (Herbicidal rate of 5% or less (almost no effect))
- herbicidal effect on G: green foxtail (green foxtail; [10]): 0 (Herbicidal rate of 5% or less (almost no effect))
- herbicidal effect on H: barnyard grass (barnyard grass [5]; [10]): 0 (Herbicidal rate of 5% or less (almost no effect))
- herbicidal effect on I: wild oat (wild oat; [10]): 0 (Herbicidal rate of 5% or less (almost no effect))
- herbicidal effect on J: blackgrass (blackgrass; [10]): 0 (Herbicidal rate of 5% or less (almost no effect))
- herbicidal effect on K: Italian ryegrass (Italian ryegrass; [10]): 0 (Herbicidal rate of 5% or less (almost no effect))
- herbicidal effect on L: windgrass (windgrass): 0 (Herbicidal rate of 5% or less (almost no effect))
- herbicidal effect on M: velvetleaf (velvetleaf; [10]): 0 (Herbicidal rate of 5% or less (almost no effect))
- herbicidal effect on N: redroot pigweed (redroot pigweed): 0 (Herbicidal rate of 5% or less (almost no effect))
- herbicidal effect on O: lambsquarters (lambsquarters; [10]): 0 (Herbicidal rate of 5% or less (almost no effect))
- herbicidal effect on P: chickweed (chickweed; [10]): 3 (Herbicidal rate of 40% or more and less than 70%)
- herbicidal effect on Q: false cleavers (false cleavers; [10]): 0 (Herbicidal rate of 5% or less (almost no effect))
- herbicidal effect on R: persian speedwell (persian speedwell; [10]): 1 (Herbicidal rate of 5% or more and less than 20%)

Structure (SMILES): CCCC(=O)Oc1c(C)nn(C)c(=O)c1-c1c(-c2ccc(F)cc2OC)sc2cc(C)ccc12 [3-056]
- Herbicidal effect, A: late watergrass (late watergrass [6]): 3 (Herbicidal rate of 40% or more and less than 70%)
- Herbicidal effect, B: Japanese bulrush (Japanese bulrush [7]): 0 (Herbicidal rate of 5% or less (almost no effect))
- Herbicidal effect, C: oval-leafed pondweed (oval-leafed pondweed [8]): 0 (Herbicidal rate of 5% or less (almost no effect))
- herbicidal effect rating, A: late watergrass (late watergrass [1]): 2 (Herbicidal rate of 20% or more and less than 40%)
- herbicidal effect rating, B: Japanese bulrush (Japanese bulrush [2]): 0 (Herbicidal rate of 5% or less (almost no effect))
- herbicidal effect rating, C: oval-leafed pondweed (oval-leafed pondweed [3]): 0 (Herbicidal rate of 5% or less (almost no effect))
- herbicidal effect on barnyard grass (H) (barnyard grass [4]; 320 g/ha): 3 (Herbicidal rate of 40% or more and less than 70%)
- herbicidal effect on Chinese sprangletop (D) (Chinese sprangletop; 320 g/ha): 1 (Herbicidal rate of 5% or more and less than 20%)
- herbicidal effect on rice flat sedge (E) (rice flat sedge; 320 g/ha): 3 (Herbicidal rate of 40% or more and less than 70%)
- F: southern crabgrass, herbicidal effect grade (southern crabgrass; three weeks after application): 3 (Herbicidal rate of 40% or more and less than 70%)
- G: green foxtail, herbicidal effect grade (green foxtail; three weeks after application): 4 (Herbicidal rate of 70% or more and less than 90%)
- H: barnyard grass, herbicidal effect grade (barnyard grass [5]; three weeks after application): 3 (Herbicidal rate of 40% or more and less than 70%)
- I: wild oat, herbicidal effect grade (wild oat; three weeks after application): 3 (Herbicidal rate of 40% or more and less than 70%)
- J: blackgrass, herbicidal effect grade (blackgrass; three weeks after application): 2 (Herbicidal rate of 20% or more and less than 40%)
- K: Italian ryegrass, herbicidal effect grade (Italian ryegrass; three weeks after application): 3 (Herbicidal rate of 40% or more and less than 70%)
- M: velvetleaf, herbicidal effect grade (velvetleaf; three weeks after application): 2 (Herbicidal rate of 20% or more and less than 40%)
- O: lambsquarters, herbicidal effect grade (lambsquarters; three weeks after application): 2 (Herbicidal rate of 20% or more and less than 40%)
- P: chickweed, herbicidal effect grade (chickweed; three weeks after application): 5 (Herbicidal rate of 90% or more (almost completely withered))
- Q: false cleavers, herbicidal effect grade (false cleavers; three weeks after application): 4 (Herbicidal rate of 70% or more and less than 90%)
- R: persian speedwell, herbicidal effect grade (persian speedwell; three weeks after application): 5 (Herbicidal rate of 90% or more (almost completely withered))
